Laboratory results: patent publication US4622388A, “Des-2-serine, 3 asparagine-calcitonin” (Armour Pharmaceutical Company, priority 1985, dated 1986)
Positions of bridges follow the written chain, without caps; N, C: chain ends. Residues, ends and D or L forms follow the SMILES beside them.

Key:
[1] = test system: serum calcium concentration; experiment: Biological assay of calcitonin analogs in vivo: reduction of serum calcium concentration, 2x2 parallel line assay; design: species or system Rats
Protocol: The biological potency of des-2-serine, 3-asparagine-salmon calcitonin was determined by comparing the reduction of serum calcium concentration which followed administration by graded doses of des-Ser^2, […] -SCT and synthetic salmon calcitonin standard. Rats were divided into four groups of seven animals, and each group was assigned at random to a dose of standard or test solution. Low and high doses were chosen from the linear portion of the dose-response curve. For the salmon calcitonin standard, the values were 0.7 and 2.1 ng. peptide/100 g. body weight (BW). This dose approximates 3 and 9 MU/100 g. BW. Peptides were given by subcutaneous injection (0.2 ml/100 g. BW) and blood was withdrawn 1 hour later for serum calcium determination. Sera are processed and analyzed within two hours of collection. […]. Results were analyzed by a 2×2 parallel line assay [Gaddum, J. H. J. Pharm. Pharmacol., 6, 345 (1953)]. The standard salmon calcitonin used was independently determined to contain greater than 4,000 IU/mg. des-Ser^2, Asn^3 -SCT assayed at 4350 IU/mg.

[2] = literature value, Monikawa et al.; cited from earlier work

Row | Molecule | hypocalcemic potency [2] | also measured
1 | CC(C)C[C@H](NC(=O)[C@H](CCCCN)NC(=O)CNC(=O)[C@H](CC(C)C)NC(=O)[C@@H](NC(=O)[C@@H]1CSSC[C@H](N)C(=O)N[C@@H](CC(C)C)C(=O)N[C@@H](CO)C(=O)N[C@@H]([C@@H](C)O)C(=O)N1)C(C)C)C(=O)N[C@@H](CO)C(=O)N[C@@H](CCC(N)=O)C(=O)N[C@@H](CCC(=O)O)C(=O)N[C@@H](CC(C)C)C(=O)N[C@@H](Cc1c[nH]cn1)C(=O)N[C@@H](CCCCN)C(=O)N[C@@H](CC(C)C)C(=O)N[C@@H](CCC(N)=O)C(=O)N[C@H](C(=O)N[C@@H](Cc1ccc(O)cc1)C(=O)N1CCC[C@H]1C(=O)N[C@@H](CCCNC(=N)N)C(=O)N[C@H](C(=O)N[C@@H](CC(N)=O)C(=O)N[C@H](C(=O)NCC(=O)N[C@@H](CO)C(=O)NCC(=O)N[C@H](C(=O)N1CCC[C@H]1C(N)=O)[C@@H](C)O)[C@@H](C)O)[C@@H](C)O)[C@@H](C)O [des-Ser^2, Asn^3 -SCT, des-2-serine, 3-asparagine-salmon calcitonin] (H-CLSTCVLGKLSQELHKLQTYPRTNTGSGTP-NH2; disulfide 1-5) | – | biological potency (reduction of serum calcium concentration) ([1]; rats, subcutaneous injection, blood withdrawn 1 hour later, vs synthetic salmon calcitonin standard): 4350 IU/mg
2 | CC(C)C[C@H](NC(=O)[C@H](CCCCN)NC(=O)CNC(=O)[C@H](CC(C)C)NC(=O)[C@@H](NC(=O)[C@@H]1CSSC[C@H](N)C(=O)N[C@@H](CO)C(=O)N[C@@H](CC(N)=O)C(=O)N[C@@H](CC(C)C)C(=O)N[C@@H](CO)C(=O)N[C@@H]([C@@H](C)O)C(=O)N1)C(C)C)C(=O)N[C@@H](CO)C(=O)N[C@@H](CCC(N)=O)C(=O)N[C@@H](CCC(=O)O)C(=O)N[C@@H](CC(C)C)C(=O)N[C@@H](Cc1c[nH]cn1)C(=O)N[C@@H](CCCCN)C(=O)N[C@@H](CC(C)C)C(=O)N[C@@H](CCC(N)=O)C(=O)N[C@H](C(=O)N[C@@H](Cc1ccc(O)cc1)C(=O)N1CCC[C@H]1C(=O)N[C@@H](CCCNC(=N)N)C(=O)N[C@H](C(=O)N[C@@H](CC(N)=O)C(=O)N[C@H](C(=O)NCC(=O)N[C@@H](CO)C(=O)NCC(=O)N[C@H](C(=O)N1CCC[C@H]1C(N)=O)[C@@H](C)O)[C@@H](C)O)[C@@H](C)O)[C@@H](C)O [standard salmon calcitonin, Salmon calcitonin] | – | potency of the standard salmon calcitonin, independently determined ([1]; standard used in the assay, independently determined): greater than 4,000 IU/mg
3 | (1,7-α-L-amino-suberic acid)eel calcitonin | about 3400 IU/mg. | –
4 | eel calcitonin [synthetic eel calcitonin] | around 4300 IU/mg. | –
